Article PMC10487658, “Identification and Characterization of RK22, a Novel Antimicrobial Peptide from Hirudinaria manillensis against Methicillin Resistant Staphylococcus aureus” (International Journal of Molecular Sciences, 2023)
≈ marks a conversion by molar mass, not a printed value. Like-named read-outs stand apart in the source and are kept apart here. Residues, ends and D or L forms follow the SMILES beside them. No end group written: not given here.

How the values were obtained:
P. aeruginosa, ATCC9027 = type: cell-based, Pseudomonas aeruginosa; settings: RPMI 1640, 37 °C, 12–16 h, absorbance at 600 nm
E. coli, ATCC25922 = type: cell-based, Escherichia coli; settings: RPMI 1640, 37 °C, 12–16 h, absorbance at 600 nm
MRSA-Z [1] = assay: Bacterial killing kinetic assay; type: cell-based, Staphylococcus aureus; settings: 10 × MIC, 6 h, RPMI 1640, 37 °C, CFU count, 3 individual experiments
Method: (§1) The bactericidal killing kinetic assay was performed according to a previous study with minor modifications. Firstly, S. aureus ATCC6538 or methicillin-resistant S. aureus MRSA-Z was diluted to 2 × 10^5 CFU/mL using RPMI 1640 medium. Equal volumes of either RK22 (final concentration 1, 5, 10 × MIC) or vancomycin (Macklin, Shanghai, China) (final concentration 1, 5, 10 × MIC) solutions were added to the bacterial suspension. The mixtures were then incubated at 37 °C for different times (0, 15, 30, 60, 180, and 360 min). At each time point, the bacterial solution was inoculated on LB agar culture medium, and colony forming units (CFUs) were counted after 24 h.

S. aureus ATCC6538 [2] = assay: Bacterial killing kinetic assay; type: cell-based, Staphylococcus aureus; settings: RPMI 1640, 37 °C, CFU count, 3 individual experiments
Method: as §1

[3] = tested on: MRSA22 (clinically isolated methicillin-resistant S. aureus); assay: microbe, parasite or virus in culture; type: cell-based, Staphylococcus aureus; settings: Staphylococcus aureus
Method: (§2) The bacterial strains used in this study included Pseudomonas aeruginosa (P. aeruginosa, ATCC27853), Acinetobacter baumannii (A. baumannii, ATCC19606), Escherichia coli (E. coli, ATCC8739), and S. aureus (ATCC6538, two clinically isolated strains (SA220823 and SA15772)), and three clinically isolated methicillin-resistant strains (MRSA-Z, MRSA11, and MRSA22). All strains were grown in Luria-Bertani (LB) broth.
(§3) The minimum inhibitory concentration (MIC) for all strains was determined using the […] assay based on a previous study with minor modifications. Initially, strains in the exponential phase were diluted to a concentration of 2 × 10^5 CFU/mL using RPMI 1640 medium (Corning, New York, NY, USA). Next, 100 μL of the bacterial suspension was mixed with 100 μL of the sample solution (final concentration 0–200 μg/mL in RPMI 1640 medium) in 96-well plates. The plates were then incubated at 37 °C for 12–16 h. After incubation, the absorbance at 600 nm was measured, and the MIC was determined as the lowest concentration of the test sample in which no bacterial growth was detected in the well.

[4] = tested on: MRSA-Z (clinically isolated methicillin-resistant S. aureus); assay: microbe, parasite or virus in culture; type: cell-based, Staphylococcus aureus; settings: Staphylococcus aureus, MRSA
Method: as §2, §3

[5] = tested on: SA15772 (clinically isolated S. aureus); assay: microbe, parasite or virus in culture; type: cell-based, Staphylococcus aureus; settings: Staphylococcus aureus
Method: as §2, §3

[6] = tested on: MRSA11 (clinically isolated methicillin-resistant S. aureus); assay: microbe, parasite or virus in culture; type: cell-based, Staphylococcus aureus; settings: Staphylococcus aureus
Method: as §2, §3

S. aureus (ATCC6538) = assay: microbe, parasite or virus in culture; type: cell-based, Staphylococcus aureus
Method: as §2, §3

[7] = tested on: SA220823 (clinically isolated S. aureus); assay: microbe, parasite or virus in culture; type: cell-based, Staphylococcus aureus; settings: Staphylococcus aureus
Method: as §2, §3

MRSA-Z [8] = assay: S. aureus-induced bacteremia model; type: in vivo, mouse; settings: RK22 8 mg/kg, vancomycin 4 mg/kg ip 1 h after infection, 4 h after administration
Method: (§4) S. aureus ATCC6538 or methicillin-resistant S. aureus MRSA-Z were diluted to a concentration of 1 × 10^9 CFU/mL with normal saline. Male C57BL/6 mice (6–8 weeks of age) were randomly divided into seven groups of 10–12 mice per group. S. aureus ATCC6538 (100 μL) or methicillin-resistant S. aureus MRSA-Z (200 μL) were injected intravenously. At the end of 1 h, mice received an intraperitoneal injection of normal saline, vancomycin (dissolved in saline with the concentration of 2 and 4 mg/kg), or RK22 (dissolved in saline with the concentration of 2, 4, and 8 mg/kg). At 4 h post-administration, the mice were sacrificed, and blood and lung samples were collected. Lungs were then weighed and placed in 1 mL of PBS and homogenized on ice with a tissue grinder. Homogenates and clarified blood were plated in LB agar culture medium and CFUs were counted after 24 h. For histopathological analysis, sections of lung were fixed with 4% paraformaldehyde, embedded in paraffin wax, and stained with H&E.

S. aureus ATCC6538 [9] = assay: S. aureus-induced bacteremia model; type: in vivo, mouse; settings: RK22 8 mg/kg, vancomycin 4 mg/kg ip 1 h after infection, 4 h after administration
Method: as §4

washed platelets = assay: Platelet activity assay, flow cytometry; type: cell-based; settings: mouse washed platelets, 20, 10, 5, 2.5 μg/mL, 10 min, P-selectin
Method: Platelets were isolated from the mice as described in a previous study with minor modifications. The effect of RK22 and LL-37 on platelet activity was detected by flow cytometry. Mouse blood was mixed with Tyrode’s buffer A (137 mM NaCl, 2 mM KCl, 0.3 mM NaH2PO4, 12 mM NaHCO3, 5.5 mM glucose, 0.35% BSA, 1 mM MgCl2, and 0.2 mM EDTA, pH 6.5) and centrifuged (150× g, 10 min, room temperature) to obtain platelet-rich plasma (PRP), which was then pelleted (400× g, 5 min, room temperature), washed with Tyrode’s buffer A, and finally resuspended in Tyrode’s buffer B (137 mM NaCl, 2 mM KCl, 0.3 mM NaH2PO4, 12 mM NaHCO3, 5.5 mM glucose, 0.35% BSA and 2 mM CaCl2, pH 7.4). Antibodies against P-selectin (Biolegend, San Diego, CA, USA) were added to the platelets, followed by incubation for 10 min at room temperature. Samples (20, 10, 5, and 2.5 μg/mL) or normal saline were added, respectively, and analyzed by flow cytometry (BD, LSRFortessa^TM, Franklin Lakes, NJ, USA).

FXa = target: T1, FXa (Homo sapiens, UniProt P00742); assay: Enzymatic activity assay of coagulation factors, chromogenic substrate; type: biochemical; settings: 40, 200, 1000 nM, 10 min pre-incubation, substrate S-2222, 405 nm
T1 construct: purchased Enzymeresearch, Lake Oswego, OR, USA
Method: (§5) The enzymatic activity of RK22 and LL-37 against coagulation factors was measured using the chromogenic substrate method. In brief, 5 μL of FXa (Enzymeresearch, Lake Oswego, OR, USA) (final concentration 3 μg/mL) or thrombin (Enzymeresearch, Lake Oswego, OR, USA) (final concentration 0.1056 μg/mL) and 5 μL of sample (final concentration 40, 200, and 1000 nM) were incubated for 10 min in 96-well plates, respectively. Following incubation, thrombin substrate (S-2238, Chromogenix, Milano, Italy, 45 μg/mL) or FXa substrate (S-2222, Chromogenix, Milano, Italy, 90 μg/mL) dissolved with 90 μL of enzyme dynamic buffer (100 mM NaCl, 50 mM Tris, 5 mM CaCl2, pH 8.0) were added and absorbance was measured at 405 nm every 1 min for 90 min.

thrombin = target: T2, thrombin (Homo sapiens, UniProt P00734); assay: as above; type: biochemical; settings: 40, 200, 1000 nM, 10 min pre-incubation, substrate S-2238, 405 nm
T2 construct: purchased Enzymeresearch, Lake Oswego, OR, USA
Method: as §5

[10] = P. aeruginosa ATCC9027 in Table 3

T1 sequence (P00742 235-488 limits assumed): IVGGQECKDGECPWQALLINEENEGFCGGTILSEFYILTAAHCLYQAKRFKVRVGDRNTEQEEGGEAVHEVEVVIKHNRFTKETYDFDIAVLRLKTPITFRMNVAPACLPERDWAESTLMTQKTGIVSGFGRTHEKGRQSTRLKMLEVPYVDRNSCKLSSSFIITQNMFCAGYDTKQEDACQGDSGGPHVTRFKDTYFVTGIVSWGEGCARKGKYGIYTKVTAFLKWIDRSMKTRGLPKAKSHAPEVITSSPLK
T1 sequence (P00742 41-179 partner limits assumed): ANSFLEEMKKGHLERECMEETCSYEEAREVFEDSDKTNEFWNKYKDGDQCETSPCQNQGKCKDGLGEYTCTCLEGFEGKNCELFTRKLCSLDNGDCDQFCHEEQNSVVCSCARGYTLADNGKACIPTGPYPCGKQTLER

CC(C)C[C@H](NC(=O)[C@@H](NC(=O)[C@@H](NC(=O)[C@H](CS)NC(=O)[C@@H](NC(=O)[C@H](CCCCN)NC(=O)[C@H](CCCCN)NC(=O)[C@H](CCCCN)NC(=O)[C@H](CCCCN)NC(=O)[C@@H]1CCCN1C(=O)[C@H](CCCCN)NC(=O)[C@@H]1CCCN1C(=O)[C@H](CCCCN)NC(=O)[C@@H]1CCCN1C(=O)[C@H](CS)NC(=O)[C@H](CC(C)C)NC(=O)[C@@H](NC(=O)[C@H](C)NC(=O)[C@@H](N)CCCNC(=N)N)C(C)C)C(C)C)C(C)C)C(C)C)C(=O)O [RA19] (H-RAVLCPKPKPKKKKVCVVL-OH; N-terminus and C-terminus assumed)
MIC (P. aeruginosa, ATCC9027; P. aeruginosa ATCC27853 as printed in the text): exceeding 100 μg/mL | MIC (E. coli, ATCC25922; E. coli ATCC8739 as printed in the text): exceeding 100 μg/mL

CN[C@H](CC(C)C)C(=O)N[C@H]1C(=O)N[C@@H](CC(N)=O)C(=O)N[C@H]2C(=O)N[C@H]3C(=O)N[C@H](C(=O)N[C@H](C(=O)O)c4cc(O)cc(O)c4-c4cc3ccc4O)[C@H](O)c3ccc(c(Cl)c3)Oc3cc2cc(c3O[C@@H]2O[C@H](CO)[C@@H](O)[C@H](O)[C@H]2O[C@H]2C[C@](C)(N)[C@H](O)[C@H](C)O2)Oc2ccc(cc2Cl)[C@H]1O [Vancomycin, vancomycin, reference compound]
MRSA-Z inhibited / eradicated (MRSA-Z [1]): about 80% | time to a kill rate of more than 90% (S. aureus ATCC6538 [2]; S. aureus ATCC6538, 5 × MIC): 6 h | time to a kill rate of more than 90% (S. aureus ATCC6538 [2]; S. aureus ATCC6538, 10 × MIC): 6 h | MIC [3]: 1.56 µg/mL (≈ 1.08 µM) | MIC [4]: 1.56 µg/mL (≈ 1.08 µM) | MIC [5]: 1.56 µg/mL (≈ 1.08 µM) | MIC [6]: 1.56 µg/mL (≈ 1.08 µM) | MIC (S. aureus (ATCC6538); Staphylococcus aureus): 1.56 µg/mL (≈ 1.08 µM) | MIC [7]: 1.56 µg/mL (≈ 1.08 µM) | infection-induced tissue injury in the lung (H&E) (MRSA-Z [8]): significantly alleviated | infection-induced hemorrhage and inflammatory cell infiltration in the lung (H&E) (S. aureus ATCC6538 [9]): significantly alleviated

KSKSKKPSKSKPKKKKTSVVQQELQDVISFDFGC [KS34]
MIC (P. aeruginosa, ATCC9027; [10]): >100 µg/mL | MIC (E. coli, ATCC25922; E. coli ATCC25922): >100 µg/mL

KSSNTKAKKKKKNN [KS14]
MIC (P. aeruginosa, ATCC9027; [10]): >100 µg/mL | MIC (E. coli, ATCC25922; E. coli ATCC25922): >100 µg/mL | MIC (S. aureus (ATCC6538)): 50 µg/mL

KTRRRNRKHKKTINTETVQI [KT20]
MIC (P. aeruginosa, ATCC9027; [10]): >100 µg/mL | MIC (E. coli, ATCC25922; E. coli ATCC25922): >100 µg/mL | MIC (S. aureus (ATCC6538)): 50 µg/mL

LL-37
platelet activation (washed platelets): significant and dose-dependent effects on platelet activation | effect on enzymatic activity of FXa (FXa): significant potentiation activity | effect on enzymatic activity of thrombin (thrombin): significant potentiation activity

VFLICFSLISPASFENVRAKW [VF21]
MIC (P. aeruginosa, ATCC9027; [10]): >100 µg/mL | MIC (E. coli, ATCC25922; E. coli ATCC25922): >100 µg/mL
